Source: US12030879B2, “Sulfonyl acetamides as NLRP3 inhibitors” (Inflazome Limited, priority 2018, dated 2024)
Counter-ions that a name gives are not always drawn.

These molecules were tested against T1, NLRP3 (Homo sapiens, UniProt Q96P20) (assay: THP-1 cells pyroptosis assay). Details: LPS 1 μg/ml, compound 3 hrs, nigericin 5 μM 1 hr, resazurin readout.
T1 construct: Seed THP-1 cells (25,000 cells/well) containing 1.0 μg/ml LPS in 40 μl of RPMI medium; host or cells: THP-1 cells
T1 sequence (Q96P20 whole entry): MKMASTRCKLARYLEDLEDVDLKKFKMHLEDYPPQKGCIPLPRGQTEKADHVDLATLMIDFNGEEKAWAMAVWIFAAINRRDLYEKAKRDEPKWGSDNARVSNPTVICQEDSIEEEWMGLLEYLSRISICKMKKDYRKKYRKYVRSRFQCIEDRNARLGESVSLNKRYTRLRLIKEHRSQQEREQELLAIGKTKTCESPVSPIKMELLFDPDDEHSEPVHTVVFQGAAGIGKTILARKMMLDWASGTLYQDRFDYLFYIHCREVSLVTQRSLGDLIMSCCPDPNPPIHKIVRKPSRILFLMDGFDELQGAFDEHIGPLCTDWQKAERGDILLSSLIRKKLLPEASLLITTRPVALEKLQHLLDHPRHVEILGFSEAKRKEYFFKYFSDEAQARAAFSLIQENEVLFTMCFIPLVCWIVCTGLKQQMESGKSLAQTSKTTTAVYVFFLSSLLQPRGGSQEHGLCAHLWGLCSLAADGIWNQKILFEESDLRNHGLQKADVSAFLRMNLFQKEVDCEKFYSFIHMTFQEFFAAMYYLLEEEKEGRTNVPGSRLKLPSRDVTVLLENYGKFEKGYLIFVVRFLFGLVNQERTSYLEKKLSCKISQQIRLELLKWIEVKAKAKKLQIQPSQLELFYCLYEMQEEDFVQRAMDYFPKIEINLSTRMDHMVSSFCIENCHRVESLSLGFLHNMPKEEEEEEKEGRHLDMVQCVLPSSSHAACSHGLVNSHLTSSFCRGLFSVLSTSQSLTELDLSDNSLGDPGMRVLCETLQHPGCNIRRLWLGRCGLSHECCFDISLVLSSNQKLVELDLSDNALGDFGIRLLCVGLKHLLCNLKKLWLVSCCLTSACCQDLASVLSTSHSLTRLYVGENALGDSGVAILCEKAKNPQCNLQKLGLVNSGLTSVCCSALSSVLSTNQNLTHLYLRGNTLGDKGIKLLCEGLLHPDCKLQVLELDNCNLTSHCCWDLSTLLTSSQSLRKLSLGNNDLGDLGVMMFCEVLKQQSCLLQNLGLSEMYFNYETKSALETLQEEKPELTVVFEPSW
Format: cell-based
Procedure: THP-1 cells (ATCC #TIB-202) were grown in RPMI containing L-glutamine (Gibco #11835) supplemented with 1 mM sodium pyruvate (Sigma #S8636) and penicillin (100 units/ml)/streptomycin (0.1 mg/ml) (Sigma #P4333) in 10% Fetal Bovine Serum (FBS) (Sigma #F0804). The cells were routinely passaged and grown to confluency (10^6 cells/ml). On the day of the experiment, THP-1 cells were harvested and resuspended into RPMI medium (without FBS). The cells were then counted and viability (>90%) checked by Trypan blue (Sigma #T8154). Appropriate dilutions were made to give a concentration of 625,000 cells/ml. To this diluted cell solution was added LPS (Sigma #L4524) to give a 1 μg/ml Final Assay Concentration (FAC). 40 μl of the final preparation was aliquoted into each well of a 96-well plate. The plate thus prepared was used for compound screening.
The following method step-by-step assay was followed for compound screening. • 1. Seed THP-1 cells (25,000 cells/well) containing 1.0 μg/ml LPS in 40 μl of RPMI medium (without FBS) in 96-well, black walled, clear bottom cell culture plates coated with poly-D-lysine (VWR #734-0317) • 2. Add 5 μl compound (8 points half-log dilution, with 10 μM top dose) or vehicle (DMSO 0.1% FAC) to the appropriate wells • 3. Incubate for 3 hrs at 37° C., 5% CO2 • 4. Add 5 μl nigericin (Sigma #N7143) (FAC 5 μM) to all wells • 5. Incubate for 1 hr at 37° C., 5% CO2 • 6. At the end of the incubation period, spin plates at 300×g for 3 mins and remove supernatant • 7. Then add 50 μl of resazurin (Sigma #R7017)(FAC 100 μM resazurin in RPMI medium without FBS) and incubate plates for a further 1-2 hrs at 37° C. and 5% CO2 • 8. Plates were read in an Envision reader at Ex 560 nm and Em 590 nm • 9. IC50 data is fitted to a non-linear regression equation (log inhibitor vs response-variable slope 4-parameters) 96-well Plate Map
`COc1cc(-c2cc(F)cc(C(C)C)c2CC(=O)NS(=O)(=O)c2ccc(C#N)cc2C)ccn1` [Example 37, N-((4-Cyano-2-methylphenyl)sulfonyl)-2-(4-fluoro-2-isopropyl-6-(2-methoxypyridin-4-yl)phenyl)acetamide] was tested, and the IC50 was ≤ 5 µM.
`COc1cc(-c2cc(F)cc(C(C)C)c2CC(=O)NS(=O)(=O)c2cccc(CO)c2)ccn1` [Example 38, 2-(4-Fluoro-2-isopropyl-6-(2-methoxypyridin-4-yl)phenyl)-N-((3-(hydroxymethyl)phenyl)sulfonyl)acetamide, potassium salt] was tested, and the IC50 was ≤ 1 µM.
In the case of `COC(=O)c1ccc(S(=O)(=O)NC(=O)Cc2c(-c3ccnc(OC)c3)cc(F)cc2C(C)C)c(C)c1` [Example 39, Methyl 4-(N-(2-(4-fluoro-2-isopropyl-6-(2-methoxypyridin-4-yl)phenyl)acetyl)sulfamoyl)-3-methylbenzoate], the IC50 is reported as ≤ 10 µM.
In the case of `COc1cc(-c2cc(F)cc(C(C)C)c2CC(=O)NS(=O)(=O)c2cc(C(C)(C)O)co2)ccn1` [Example 40, 2-(4-Fluoro-2-isopropyl-6-(2-methoxypyridin-4-yl)phenyl)-N-((4-(2-hydroxypropan-2-yl)furan-2-yl)sulfonyl)acetamide], the IC50 is reported as ≤ 0.5 µM.
With `COc1cc(-c2cc(F)cc(C(C)C)c2CC(=O)NS(=O)(=O)C(C)c2ccccc2)ccn1` (stereo not shown) [Example 41, 2-(4-Fluoro-2-isopropyl-6-(2-methoxypyridin-4-yl)phenyl)-N-((1-phenylethyl)sulfonyl)acetamide] the IC50 was ≤ 10 µM.
In the case of `COc1cc(-c2cc(F)cc(C(C)C)c2CC(=O)NS(=O)(=O)c2cnn(C)c2)ccn1` [Example 42, 2-(4-Fluoro-2-isopropyl-6-(2-methoxypyridin-4-yl)phenyl)-N-((1-methyl-1H-pyrazol-4-yl)sulfonyl)acetamide], the IC50 is reported as ≤ 10 µM.
`COc1cc(-c2cc(F)cc(C(C)C)c2CC(=O)NS(=O)(=O)c2ccc(C(C)=O)cc2)ccn1` [Example 43, N-((4-Acetylphenyl)sulfonyl)-2-(4-fluoro-2-isopropyl-6-(2-methoxypyridin-4-yl)phenyl)acetamide] was tested, and the IC50 was ≤ 5 µM.
For `COc1cc(-c2ccc3c(c2CC(=O)NS(=O)(=O)N(C)C2CCN(C)C2)CCC3)ccn1` (stereo not shown) [Example 55, 2-(5-(2-Methoxypyridin-4-yl)-2,3-dihydro-H-inden-4-yl)-N—(N-methyl-N-(1-methylpyrrolidin-3-yl)sulfamoyl)acetamide, potassium salt], the IC50 was ≤ 5 µM.
`CCN(CC)CCCS(=O)(=O)NC(=O)Cc1c(-c2ccnc(OC)c2)ccc2c1CCC2` [Example 56, N-((3-(Diethylamino)propyl)sulfonyl)-2-(5-(2-methoxypyridin-4-yl)-2,3-dihydro-1H-inden-4-yl)acetamide] was tested, and the IC50 was ≤ 10 µM.
`CCN(CC)CCCS(=O)(=O)NC(=O)Cc1c(-c2ccnc(OC)c2)cc(F)cc1C(C)C` [Example 57, N-((3-(Diethylamino)propyl)sulfonyl)-2-(4-fluoro-2-isopropyl-6-(2-methoxypyridin-4-yl)phenyl)acetamide, potassium salt] was tested, and the IC50 was ≤ 5 µM.
With `COc1cc(-c2cc(F)cc(C(C)C)c2CC(=O)NS(=O)(=O)c2cc(C(=O)N(C)C)n(C)n2)ccn1` [Example 58, 3-(N-(2-(4-Fluoro-2-isopropyl-6-(2-methoxypyridin-4-yl)phenyl)acetyl)sulfamoyl)-N,N,1-trimethyl-1H-pyrazole-5-carboxamide] the IC50 was ≤ 1 µM.
With `CC(C)c1cc(F)cc(-c2cccnc2)c1CC(=O)NS(=O)(=O)c1cc(C(=O)N(C)C)n(C)n1` [Example 59, 3-(N-(2-(4-Fluoro-2-isopropyl-6-(pyridin-3-yl)phenyl)acetyl)sulfamoyl)-N,N,1-trimethyl-1H-pyrazole-5-carboxamide] the IC50 was ≤ 5 µM.
With `CC(C)c1cc(F)cc(-c2ccncc2)c1CC(=O)NS(=O)(=O)c1cc(C(=O)N(C)C)n(C)n1` [Example 60, 3-(N-(2-(4-Fluoro-2-isopropyl-6-(pyridin-4-yl)phenyl)acetyl)sulfamoyl)-N,N,1-trimethyl-1H-pyrazole-5-carboxamide] the IC50 was ≤ 5 µM.
`CC(C)c1cc(F)cc(-c2ccncc2)c1CC(=O)NS(=O)(=O)c1ccn(C(C)(C)CN(C)C)n1` [Example 61, N-((1-(1-(Dimethylamino)-2-methylpropan-2-yl)-1H-pyrazol-3-yl)sulfonyl)-2-(4-fluoro-2-isopropyl-6-(pyridin-4-yl)phenyl)acetamide] was tested, and the IC50 was ≤ 5 µM.
`COc1cc(-c2cc(F)cc(C(C)C)c2CC(=O)NS(=O)(=O)c2cc(CN(C)C)n(C)n2)ccn1` [Example 62, N-((5-((Dimethylamino)methyl)-1-methyl-1H-pyrazol-3-yl)sulfonyl)-2-(4-fluoro-2-isopropyl-6-(2-methoxypyridin-4-yl)phenyl) acetamide] was tested, and the IC50 was ≤ 5 µM.
`COc1cc(-c2ccc3c(c2CC(=O)NS(=O)(=O)c2cc(C(=O)N(C)C)n(C)n2)CCC3)ccn1` [Example 64, 3-(N-(2-(5-(2-Methoxypyridin-4-yl)-2,3-dihydro-1H-inden-4-yl)acetyl)sulfamoyl)-N,N,1-trimethyl-1H-pyrazole-5-carboxamide] was tested, and the IC50 was ≤ 10 µM.
With `CN(C)C(=O)c1cc(S(=O)(=O)NC(=O)Cc2c(-c3ccnc(C#N)c3)ccc3c2CCC3)nn1C` [Example 65, 3-(N-(2-(5-(2-Cyanopyridin-4-yl)-2,3-dihydro-1H-inden-4-yl)acetyl)sulfamoyl)-N,N,1-trimethyl-1H-pyrazole-5-carboxamide] the IC50 was ≤ 5 µM.
`CC(C)c1cc(F)cc(-c2ccncc2)c1CC(=O)NS(=O)(=O)c1cc(CN(C)C)n(C)n1` [Example 73, N-((5-((Dimethylamino)methyl)-1-methyl-H-pyrazol-3-yl)sulfonyl)-2-(4-fluoro-2-isopropyl-6-(pyridin-4-yl)phenyl)acetamide] was tested, and the IC50 was ≤ 5 µM.
`COc1cc(-c2cc(F)cc(C(C)C)c2CC(=O)NS(=O)(=O)C[C@]23CCC(CC2=O)C3(C)C)ccn1` [Example 75] was tested, and the IC50 was ≤ 10 µM.
In the case of `COc1cc(-c2cc(F)cc(C(C)C)c2CC(=O)NS(=O)(=O)N(C)C2CCN(C)C2)ccn1` (stereo not shown) [Example 76, 2-(4-Fluoro-2-isopropyl-6-(2-methoxypyridin-4-yl)phenyl)-N—(N-methyl-N-(1-methylpyrrolidin-3-yl)sulfamoyl)acetamide], the IC50 is reported as ≤ 5 µM.
`COc1cc(-c2cc(F)cc(C(C)C)c2CC(=O)NS(=O)(=O)C[C@@]23CC[C@@H](C[C@H]2O)C3(C)C)ccn1` [Example 77, 2-(4-Fluoro-2-isopropyl-6-(2-methoxypyridin-4-yl)phenyl)-N-((((1R,2R,4S)-2-hydroxy-7,7-dimethylbicyclo[2.2.1]heptan-1-yl)methyl)sulfonyl)acetamide] was tested, and the IC50 was ≤ 5 µM.
With `COc1cc(-c2cc(F)cc(C(C)C)c2CC(=O)NS(=O)(=O)CCCC(C)(C)O)ccn1` [Example 78, 2-(4-Fluoro-2-isopropyl-6-(2-methoxypyridin-4-yl)phenyl)-N-((4-hydroxy-4-methylpentyl)sulfonyl)acetamide] the IC50 was ≤ 10 µM.
For `COc1cc(-c2cc(F)cc(C(C)C)c2CC(=O)NS(=O)(=O)c2ccc(F)c(C(C)(C)O)c2)ccn1` [Example 79, 2-(4-Fluoro-2-isopropyl-6-(2-methoxypyridin-4-yl)phenyl)-N-((4-fluoro-3-(2-hydroxypropan-2-yl)phenyl)sulfonyl)acetamide], the IC50 was ≤ 1 µM.
In the case of `COc1cc(-c2cc(F)cc(C(C)C)c2CC(=O)NS(=O)(=O)c2ccc(C(C)(C)O)cc2)ccn1` [Example 80, 2-(4-Fluoro-2-isopropyl-6-(2-methoxypyridin-4-yl)phenyl)-N-((4-(2-hydroxypropan-2-yl)phenyl)sulfonyl)acetamide], the IC50 is reported as ≤ 5 µM.
In the case of `COc1cc(-c2cc(F)cc(C(C)C)c2CC(=O)NS(=O)(=O)c2cccc(C(C)(C)C#N)c2)ccn1` [Example 81, N-((3-(2-Cyanopropan-2-yl)phenyl)sulfonyl)-2-(4-fluoro-2-isopropyl-6-(2-methoxypyridin-4-yl)phenyl)acetamide], the IC50 is reported as ≤ 5 µM.
In the case of `Cc1cc(C(C)(C)O)ccc1S(=O)(=O)NC(=O)Cc1c(-c2cccnc2)cc(F)cc1C(C)C` [Example 82, 2-(4-Fluoro-2-isopropyl-6-(pyridin-3-yl)phenyl)-N-((4-(2-hydroxypropan-2-yl)-2-methylphenyl)sulfonyl)acetamide], the IC50 is reported as ≤ 5 µM.
With `COc1cc(-c2cc(F)cc(C(C)C)c2CC(=O)NS(=O)(=O)c2ccc(C(C)(C)N)c(F)c2)ccn1` [Example 83, N-((4-(2-Aminopropan-2-yl)-3-fluorophenyl)sulfonyl)-2-(4-fluoro-2-isopropyl-6-(2-methoxypyridin-4-yl)phenyl)acetamide] the IC50 was ≤ 5 µM.
With `COc1cc(-c2cc(F)cc(C(C)C)c2CC(=O)NS(=O)(=O)c2ccc(C(C)(C)O)c(F)c2)ccn1` [Example 84, 2-(4-Fluoro-2-isopropyl-6-(2-methoxypyridin-4-yl)phenyl)-N-((3-fluoro-4-(2-hydroxypropan-2-yl)phenyl)sulfonyl)acetamide] the IC50 was ≤ 1 µM.
